According to US10112881B2, “Skin lightening compounds” (WiSys Technology Foundation, Inc., priority 2014, dated 2018):
Entries after “also recorded” stand apart in the source; their conditions may differ.

Experiments:
[1] = test system: zebrafish embryos; settings: embryos incubated 24 to 72 hpf
Procedure: Zebrafish embryos were incubated in compounds from 24 hpf (hours post fertilization) to 72 hpf.
(§1) The testing protocols for these compounds are as follows: • a. To test the inhibition of pigment formation, the zebrafish embryos were treated with the drugs from 24 to 72 hours post-fertilization (hpf). The embryos were monitored and imaged throughout their development to track the development of melanin pigment relative to a control group to which water was administered (Protocol 1). • b. […] The embryos were again monitored and imaged throughout their development relative to a control group to which water was administered (Protocol 2). • c. Additionally, to test the ability of the pigment to recover after being treated with our drugs, all embryos were treated at 24 hpf with the chemicals until the 68 hpf or 72 hpf time period, then washed with water to remove the treatment. The embryos were again monitored and imaged throughout their development relative to a control group to which water was administered (Protocol 3). Comparison of Skin-Lightening Compounds
The black pigment (or melanin) is very easy to observe in zebrafish. In brief, adult zebrafish are taken to breed embryos. Morphologically normal embryos of 24 hours post fertilization (hpf) stage will be selected for incubation in the drugs from 24 to 72 hours. During the incubation, the embryos are monitored and imaged (see FIG. 1) to track the development of melanin. […] To broaden the comparison with other skin-lightening products, this project can also test other compounds, kojic acid, gallic acid, (2-Morpholinobutyl)-4-thiophenol/MoTP and Haginin/phenoxidiol. […] In the meantime, the whole organism context also allows us to examine the toxicological profile, if any, of these compounds. The same protocol is also used for the experiments using the melanoma forming zebrafish.

[2] = test system: zebrafish embryos; experiment: Reduction of existing pigment in zebrafish embryos (Protocol 2); assay type: in vivo; settings: embryos incubated from 48 hpf to 68 hpf
Procedure: Embryos were incubated in compounds from 48 hpf when some pigments already formed to 68 hpf.
as §1
Thus, we compared the compound effect on existing pigment using older embryos at 48 hpf. The embryos were again monitored and imaged throughout their development according to Protocol 2.

[3] = test system: purified tyrosinase from mushroom; experiment: In vitro tyrosinase assay (L-tyrosine to DOPAchrome, absorbance 490 nm); assay type: biochemical; settings: absorbance at 490 nm at 20', 60' and 120' of reaction
Excerpt: The assay is set up by mixing purified tyrosinase from mushroom with L-tyrosine with or without test chemical. Active tyrosinase will turn L-tyrosine into DOPAchrome which is orange color. The absorbance at 490 nm which reflects the amount of DOPAchrome and thus the tyrosinase activity was taken at 20′, 60′ and 120′ of reaction.
Most of the current skin-lightening compounds reduce pigment by inhibiting the melanin synthesis enzyme called tyrosinase (FIG. 5). […] The assay is usually done by mixing purified tyrosinase from mushroom with L-tyrosine, which is the substrate of tyrosinase, and with or without test chemical. Reaction with active tyrosinase will quickly turn L-tyrosine into a color product called dopachrome which is an intermediate product in the melanin synthesis pathway. The amount of dopachrome can be measured by a spectrophotometer at A490 nm visible light.

[4] = test system: zebrafish embryos; experiment: Apoptosis labeling in compound-treated embryos; assay type: in vivo; settings: fluorescence/enzymatic labeling
Excerpt: FIGS. 7A-7B are photographs and an associated graph illustrating the cell death by skin lightening compounds. Embryos treated with skin lightening compounds were fixed and processed for enzymatic labeling for apoptosis.
Although it is rare, one compound MoTP was reported to cause cell death specifically in melanocyte. We tested whether other skin lightening compounds can also cause melanocyte cell death. Using a fluorescence labeling assay, we were able to detect the apoptotic cells. Although we were not able to specifically identify apoptotic melanocyte due to technical difficulties, we were able to evaluate the overall cell death in the compound treated embryos.

[5] = test system: dct-expressing cells (melanocyte precursors); experiment: In situ hybridization for dct-expressing cells; assay type: in vivo, zebrafish; settings: cell counts
Excerpt: The cDNA of these genes was cloned and used to generate anti-sense RNA probes.
(§2) We also carried out qPCR to measure the dct mRNA expression.

[6] = test system: dct mRNA; experiment: Quantitative PCR of dct mRNA in treated embryos; assay type: in vivo, zebrafish; settings: qPCR
Excerpt: as §2

[7] = test system: Mouse melanoma cell line B16-F10; experiment: Mouse melanoma cell proliferation (cell count after 48 hours); assay type: cell-based
Excerpt: (§3) Mouse melanoma cell line B16-F10 is a commonly used mammalian cells for melanogenesis and melanocyte studies. […] MoTP. […] The two graphs on top are cell number per 0.5 cubic mm. The Y axis in the lower two graphs is absorbance of 490 nm visible light by melanin. Higher absorbance means more melanin.
(§4) In this experiment, we first seeded approximately the same number of cells in each well of the 24-well plate supplied with fresh complete growth medium with different skin lightening compound. After 48 hours of incubation, we counted the cell numbers to evaluate the cell proliferation and lysed the cells from additional identically set-up wells and measured the total amount of melanin in treated melanoma.

[8] = test system: Mouse melanoma cell line B16-F10; experiment: Melanin content of mouse melanoma cells (absorbance 490 nm); assay type: cell-based; settings: 48 hours
Excerpt: as §3, §4

[9] = test system: zebrafish embryos; experiment: Pigment recovery after chemical withdrawal (Protocol 3); assay type: in vivo; settings: treated 24-72 hpf, washed, imaged 24 hours after wash
Procedure: FIG. 4 are photographs of the pigment recovery after chemical withdrawal. Zebrafish embryos were treated with skin lightening compounds from 24-72 hpf followed by several washes to remove the compounds then incubated in […]. Twenty four hours after wash, the embryos were imaged.
Comparison of Skin-Lightening Compounds
It has been reported that melanin usually reappears after the withdrawal of skin lightening products. We studied this question by treating fish embryos from 24-72 hpf, according to Protocol 3, to create strong pigment reduction then wash off the compounds and track the pigment recovery. […] A drug with the ability to permanently remove or inhibit pigment might pose a concern of causing vitiligo.

Molecule	inhibition of pigment formation [1]	overall efficacy of the skin-lightening effects (rank order) [1]	reduction of existing pigment [2]	tyrosinase inhibition [3]	apoptosis / overall cell death in treated embryos [4]	number of dct+ cells [5]	dct mRNA expression [6]	cell proliferation ([7]; 40 uM)	melanin synthesis / melanin amount ([8]; 10 uM)	melanin synthesis / melanin amount ([8]; 40 uM)	cell proliferation ([7]; concentration not given)	melanin synthesis / melanin amount ([8]; concentration not given)	pigment recovery after chemical withdrawal [9]	cell proliferation ([7]; 100 mM)	apoptosis / overall cell death in treated embryos ([4]; listed as Niacinamide)	reduction of existing pigment ([2]; listed as Phenoxidiol)
COc1cc(O)cc(/C=C/Oc2ccccc2C)c1 [A11, 2-Methylphenyl-E-(3-hydroxy-5-methoxy)-styryl ether]	strong pigmentation inhibition	PTU=phenoxidiol=A11=MoTP>Arbutin>Niacinamide>Tretinoin>kojic acid>gallic acid	strong and quick pigment reduction; also recorded: strong in reducing existing pigment; also recorded: strong reduction of existing pigment	does not inhibit tyrosinase; also recorded: no inhibition at all	no significant cell death	fewer dct-positive cells; also recorded: significant lower number of dct+ cells	significantly lower expression of dct expression; also recorded: reduction of dct expression	slightly inhibited the melanoma cell proliferation; also recorded: significantly inhibit the melanocyte proliferation	no melanin reduction	slight reduction; also recorded: reduced	–	–	–	–	–	–
N#CC(=C(N)Sc1ccccc1N)C(C#N)=C(N)Sc1ccccc1N [MEK-I]	–	–	–	–	–	no effect on the number of dct expressing cells and not	no change in dct expression	–	–	–	didn't seem to have any effect on melanocyte proliferation	not	–	–	–	–
NC(=S)Nc1ccccc1 [PTU, phenylthiourea]	strong pigmentation inhibition	PTU=phenoxidiol=A11=MoTP>Arbutin>Niacinamide>Tretinoin>kojic acid>gallic acid	moderately reduce existing pigment	strong inhibition	–	no effect on the number of dct expressing cells	slightly increase of dct expression	–	–	–	didn't seem to have any effect on melanocyte proliferation	significant reduction of melanin	not so	–	–	–
OC[C@H]1O[C@@H](Oc2ccc(O)cc2)[C@H](O)[C@@H](O)[C@@H]1O [arbutin, Arbutin]	different degrees of pigment inhibition	PTU=phenoxidiol=A11=MoTP>Arbutin>Niacinamide>Tretinoin>kojic acid>gallic acid	moderately reduce existing pigment	strong inhibition	–	–	slightly increase of dct expression	–	–	–	–	significant reduction of melanin	–	significantly inhibit the melanocyte proliferation	–	–
O=C(O)c1cc(O)c(O)c(O)c1 [gallic acid]	different degrees of pigment inhibition	PTU=phenoxidiol=A11=MoTP>Arbutin>Niacinamide>Tretinoin>kojic acid>gallic acid	–	enhancement of tyrosinase activity	–	–	–	–	–	–	–	–	–	–	–	–
O=c1cc(CO)occ1O [kojic acid]	different degrees of pigment inhibition	PTU=phenoxidiol=A11=MoTP>Arbutin>Niacinamide>Tretinoin>kojic acid>gallic acid	minimal or no pigment reduction	strong inhibition	–	–	–	–	–	–	significantly inhibit the melanocyte proliferation	significant reduction of melanin	–	–	–	–
NC(=O)c1cccnc1 [niacinamide, Niacinamide]	different degrees of pigment inhibition	PTU=phenoxidiol=A11=MoTP>Arbutin>Niacinamide>Tretinoin>kojic acid>gallic acid	–	–	significant apoptosis	–	–	–	–	–	–	not	–	–	large increase of apoptosis	–
Oc1ccc(C2=Cc3ccc(O)cc3OC2)cc1 [phenoxidiol, phenoxidiol/haginin]	strong pigmentation inhibition	PTU=phenoxidiol=A11=MoTP>Arbutin>Niacinamide>Tretinoin>kojic acid>gallic acid	strong in reducing existing pigment	–	large increase of apoptosis; also recorded: significant apoptosis	fewer dct-positive cells; also recorded: significant lower number of dct+ cells	significantly lower expression of dct expression; also recorded: reduction of dct expression	–	–	–	–	–	not so	–	–	strong reduction of existing pigment
CC1=C(/C=C/C(C)=C/C=C/C(C)=C/C(=O)O)C(C)(C)CCC1 [tretinoin, Tretinoin]	different degrees of pigment inhibition	PTU=phenoxidiol=A11=MoTP>Arbutin>Niacinamide>Tretinoin>kojic acid>gallic acid	minimal or no pigment reduction	–	significant apoptosis	–	–	–	–	–	didn't seem to have any effect on melanocyte proliferation	significant reduction of melanin	–	–	–	–
(2-Morpholinobutyl)-4-thiophenol [MoTP]	strong pigmentation inhibition	PTU=phenoxidiol=A11=MoTP>Arbutin>Niacinamide>Tretinoin>kojic acid>gallic acid	moderately reduce existing pigment; also recorded: strong reduction of existing pigment	enhancement of tyrosinase activity	slightly higher level of apoptosis; also recorded: slight increase of apoptosis	–	–	–	–	–	killed all the melanoma cells; also recorded: significantly inhibit the melanocyte proliferation	–	limited recovery	–	–	–
